The subject of data set [1] is rat primary hepatocytes.
In data set [2] the test system is HepG2 cells. The note with it: cited from earlier work.
In data set [3] the test system is HepG2 cells. The data set can be described thus: cells. As to conditions: Homo sapiens; for IC50: HepG2, read-out: MMP assays IC50 (µM) HepG2; for Emax: HepG2, read-out: MMP assays efficacy (%) HepG2; call rule not given here.
Data set [4] has as its system rat primary hepatocytes. The data set can be described thus: MMP assay in rat primary hepatocytes. The note with it: for IC50: Rattus norvegicus, Hepatocyte, read-out: MMP assays IC50 (µM) Rat Hepatocytes.
Where [5] appears, read: read-out: MMP assays IC50 (µM), qHTS-HepG2.
[6] abbreviates: read-out: MMP assays IC50 (µM) qHTS-HepG2.

Where two headings read alike, the source gives them in different places.

The IC50 is the concentration at which inhibition is half-maximal. For `C[C@@H]1O[C@@H](O[C@H]2C[C@@H](O)[C@]3(CO)[C@H]4[C@H](O)C[C@]5(C)[C@@H](C6=CC(=O)OC6)CC[C@]5(O)[C@@H]4CC[C@]3(O)C2)[C@H](O)[C@H](O)[C@H]1O` [Ouabain], the “MMP assays efficacy (%) Rat Hepatocytes” value in data set [1] is “inactive”. Further, the “MMP assays efficacy (%) qHTS-HepG2” value in data set [2] was -88±7%. Moreover, the IC50 in data set [2] (setting [5]) was 0.18 µM; in data set [3] it was 0.22 µM. The Emax in data set [3] came to 94%. Further, the “MMP assays IC50 (µM) Rat Hepatocytes” value in data set [4] was “inactive”.

For the compound `Oc1ccc(Cl)cc1Sc1cc(Cl)ccc1O` [Fenticlor], the “MMP assays efficacy (%) Rat Hepatocytes” value in data set [1] is listed as -88±15%. Moreover, the “MMP assays efficacy (%) qHTS-HepG2” value in data set [2] is -107±14%. The IC50 in data set [2] (setting [5]) was 2.15 ± 0.36 µM; in data set [3] it was 5.48 µM; in data set [4], 13.9 ± 8.84 µM. Also, in data set [3], the Emax worked out at 101%.

Turning to `CCCN(CCC)c1c([N+](=O)[O-])cc(C(F)(F)F)cc1[N+](=O)[O-]` [Trifluralin], the “MMP assays efficacy (%) Rat Hepatocytes” value in data set [1] is recorded as -53±24%. For the same compound, the “MMP assays efficacy (%) qHTS-HepG2” value in data set [2] is on record as -53±8%. The IC50 was 46.7 ± 9.14 µM in data set [2] (setting [5]), 39.8 µM in data set [3] and 32.6 ± 23.1 µM in data set [4]. In data set [3], the Emax was found to be 78%.

As to `C/C=C(/C(=C/C)c1ccc(O)cc1)c1ccc(O)cc1` [Dienestrol], in data set [1], the “MMP assays efficacy (%) Rat Hepatocytes” value was “inactive”. Moreover, the “MMP assays efficacy (%) qHTS-HepG2” value in data set [2] is given as -98±10%. Also, the IC50 in data set [2] (setting [6]) is 10.9 ± 1.88 µM. Also, in data set [3], the IC50 stood at 8.3 µM and the Emax is 84%. Moreover, the “MMP assays IC50 (µM) Rat Hepatocytes” value in data set [4] is “inactive”.

Consider `CC(=O)Oc1ccccc1C(=O)Nc1ncc([N+](=O)[O-])s1` [Nitazoxanide], for which the “MMP assays efficacy (%) Rat Hepatocytes” value in data set [1] is reported as -94±13%. Moreover, in data set [2], the “MMP assays efficacy (%) qHTS-HepG2” value is listed as -94±10%. In addition, the results for the IC50 in data set [2] (setting [5]), in data set [3] and in data set [4] were 1.04 ± 0.96 µM, 1.26 µM and 6.94 ± 4.36 µM, respectively. In addition, in data set [3], the Emax came to 89%.

Consider `NS(=O)(=O)C(F)(F)C(F)(F)C(F)(F)C(F)(F)C(F)(F)C(F)(F)C(F)(F)C(F)(F)F` [Perfluorooctanesulfonamide], for which, in data set [1], the “MMP assays efficacy (%) Rat Hepatocytes” value is given as -118±45%. Also, the “MMP assays efficacy (%) qHTS-HepG2” value in data set [2] is reported as -94±15%. The half-maximal inhibitory concentration (IC50) in data set [2] (setting [5]) is 2.43 ± 0.81 µM; in data set [3], 2.51 µM; in data set [4], 1.47 ± 0.1 µM. Besides, in data set [3], the Emax is 101%.

`CCC(C)c1ccc(O)cc1` (stereo not drawn) [4-(Butan-2-yl)phenol]: the “MMP assays efficacy (%) Rat Hepatocytes” value in data set [1] is “inactive”. In addition, the “MMP assays efficacy (%) qHTS-HepG2” value in data set [2] is -101±7%. In addition, in data set [2] (setting [6]), the IC50 is 32 ± 3.64 µM. Moreover, in data set [3], the IC50 was found to be 35.5 µM and the Emax came to 77%. Besides, in data set [4], the “MMP assays IC50 (µM) Rat Hepatocytes” value is “inactive”.

With `CC(C)(C)c1cc(O)c(C(C)(C)C)cc1O` [2,5-Di-tert-butylbenzene-1,4-diol], in data set [1], the “MMP assays efficacy (%) Rat Hepatocytes” value is recorded as -73±5%. For the same compound, the “MMP assays efficacy (%) qHTS-HepG2” value in data set [2] is given as -107±12%. For the same compound, the results for the IC50 in data set [2] (setting [6]), in data set [3] and in data set [4] were 7.41 ± 1.27 µM, 7.94 µM and 39.1 ± 15.5 µM, respectively. Besides, in data set [3], the Emax came out at 98%.

For `CCCCCCCCCCCCc1ccc(O)cc1` [Compound 4-Dodecylphenol], the “MMP assays efficacy (%) Rat Hepatocytes” value in data set [1] is -53±17%. Besides, the “MMP assays efficacy (%) qHTS-HepG2” value in data set [2] was -96±3%. Further, the figures for the IC50 in data set [2] (setting [6]), in data set [3] and in data set [4] were 3.18 ± 0.58 µM, 5.01 µM and 25.1 ± 21.8 µM, respectively. The Emax in data set [3] was 102%.

As for `O=C(CC(=O)c1ccccc1)c1ccccc1` [1,3-Diphenyl-1,3-propanedione], in data set [1], the “MMP assays efficacy (%) Rat Hepatocytes” value is given as -84±43%. Further, the “MMP assays efficacy (%) qHTS-HepG2” value in data set [2] is reported as -75±15%. Further, the IC50 was 11.7 ± 1.35 µM in data set [2] (setting [6]), 35.5 µM in data set [3] and 39.8 ± 14.2 µM in data set [4]. For the same compound, the Emax in data set [3] turned out to be 121%.

Take `Clc1ccc(C(c2ccccc2Cl)C(Cl)(Cl)Cl)cc1` (stereo not drawn) [o,p'-DDT]: the “MMP assays efficacy (%) Rat Hepatocytes” value in data set [1] was “inactive”. Further, in data set [2], the “MMP assays efficacy (%) qHTS-HepG2” value is given as -86±11%. Besides, in data set [2] (setting [5]), the IC50 was 24 ± 12.1 µM. In data set [3], the IC50 worked out at 25.1 µM and the Emax turned out to be 101%. Further, in data set [4], the “MMP assays IC50 (µM) Rat Hepatocytes” value was “inactive”.

For `ClC1=C(Cl)C2(Cl)C3C4CC(C5OC45)C3C1(Cl)C2(Cl)Cl` (stereo not drawn) [Endrin], the “MMP assays efficacy (%) Rat Hepatocytes” value in data set [1] is “inactive”. Also, the “MMP assays efficacy (%) qHTS-HepG2” value in data set [2] was -75±20%. In addition, in data set [2] (setting [6]), the IC50 is 23.5 ± 7.96 µM. Moreover, in data set [3], the IC50 is 21.8 µM and the Emax turned out to be 55%. The “MMP assays IC50 (µM) Rat Hepatocytes” value in data set [4] was “inactive”.

With `Nc1ccc(Cc2ccc(N)c(Cl)c2)cc1Cl` [4,4'-Methylenebis(2-chloroaniline)], in data set [1], the “MMP assays efficacy (%) Rat Hepatocytes” value is -52±15%. The “MMP assays efficacy (%) qHTS-HepG2” value in data set [2] was -98±24%. The IC50 is 49.1 ± 17 µM in data set [2] (setting [6]), 39.8 µM in data set [3] and 56.2 µM in data set [4]. Further, the Emax in data set [3] was 87%.

The values above are taken from publication PMC6112376, “Comprehensive Analyses and Prioritization of Tox21 10K Chemicals Affecting Mitochondrial Function by in-Depth Mechanistic Studies” (Environmental Health Perspectives, 2018).
